Earlier results as cited in US20210069214A1, “TOPICAL COMPOSITIONS COMPRISING A CORTICOSTEROID FOR THE TREATMENT OF PSORIASIS IN PEDIATRIC PATIENTS” (priority 2019, published 2021).

Tested on: HPA axis
Conditions: topical

dose that suppresses the HPA axis (as low as): 2 grams per day
Compound: CCC(=O)O[C@]1(C(=O)CCl)[C@@H](C)C[C@H]2[C@@H]3CCC4=CC(=O)C=C[C@]4(C)[C@@]3(F)[C@@H](O)C[C@@]21C [Clobetasol propionate, [17-(2′-chloroacetyl)-9-fluoro-11-hydroxy-10,13,16-trimethyl-3-oxo-6,7,8,11,12,14,15,16-octahydrocyclopenta[a]phenanthren-17-yl]propanoate]
